This is an account of results in patent US20210047304A1, “Bromodomain Inhibitors” (AbbVie Inc., priority 2016, published 2021).

The structures appear in SMILES notation. pKi: −log10 of the molar value. Some results are limits rather than exact numbers.

In general, pKi refers to the Ki on a negative log10 scale, so that one unit is a factor of ten. Read a high pKi as a small Ki.

This assay deals with BRD4 (BDI_K57-E168) (Homo sapiens, UniProt O60885). Description: TR-FRET bromodomain binding assay, BRD4 BDI. The procedure:
A time-resolved fluorescence resonance energy transfer (TR-FRET) assay was used to determine the affinities of compounds of the Examples listed in Table 1 for each bromodomain of BRD4. […] An Alexa647-labeled BET-inhibitor was used as the fluorescent probe in the assay.
Compound dilution series were prepared in DMSO via an approximately 3-fold serial dilution. Compound dilutions were added directly into white, low-volume assay plates (Perkin Elmer Proxiplate 384 Plus #6008280) using a Labcyte Echo in conjunction with Labcyte Access and Thermo Multidrop CombinL robotics. Compounds were then suspended in eight microliters (μL) of assay buffer (20 mM Sodium Phosphate, pH 6.0, 50 mM NaCl, 1 mM Ethylenediaminetetraacetic acid disodium salt dihydrate, 0.01% Triton X-100, 1 mM DL-Dithiothreitol) containing His-tagged bromodomain, Europium-conjugated anti-His antibody (Invitrogen PV5596) and Alexa-647-conjugated probe.
After a one-hour equilibration at room temperature, TR-FRET ratios were determined using an Envision multilabel plate reader (Ex 340, Em 495/520).
TR-FRET data were normalized to the means of 24 no-compound controls (“high”) and 8 controls containing 1 μM un-labeled probe (“low”). Percent inhibition was plotted as a function of compound concentration and the data were fit with the 4 parameter logistic equation to obtain IC50s. Inhibition constants (Ki) were calculated from the IC50s, probe Kd and probe concentration.
Compound dilution series for Compounds A-E were prepared in DMSO via an approximately 3-fold serial dilution from 0.47 mM to 7.8 nM.
Compound dilutions were added directly into white, low-volume assay plates (Perkin Elmer Proxiplate 384 Plus #6008280) using a Labcyte Echo in conjunction with Labcyte Access and Thermo Multidrop CombinL robotics. Compounds were then suspended in eight microliters (μL) of assay buffer (20 mM Sodium Phosphate, pH 6.0, 50 mM NaCl, 1 mM Ethylenediaminetetraacetic acid disodium salt dihydrate, 0.01% Triton X-100, 1 mM DL-Dithiothreitol) containing His-tagged bromodomain, Europium-conjugated anti-His antibody (Invitrogen PV5596) and Alexa-647-conjugated probe.
TR-FRET data were normalized to the means of 24 no-compound controls (“high”) and 8 controls containing 1 μM un-labeled probe (“low”). Percent inhibition was plotted as a function of compound concentration and the data were fit with the 4 parameter logistic equation to obtain IC50s. Inhibition constants (Ki) were calculated from the IC50s, probe Kd and probe concentration. Typical Z′ values were between 0.65 and 0.75. The minimum significant ratio was determined to evaluate assay reproducibility (Eastwood et al., (2006) J Biomol Screen, 11: 253-261). The MSR was determined to be 2.03 for BDI and 1.93 for BDII, and a moving MSR (last six run MSR overtime) for both BDI and BDII was typically <3.
In general terms: In TR-FRET formats the signal depends on donor and acceptor labels being close together.
In the case of `Cc1cc(F)cc(C)c1Oc1ccc(C(C)(C)O)cc1-c1cn(C)c(=O)cc1O[C@H]1CC[C@H](N2C(=O)CCC2C)CC1` (relative stereo) [Example 42, 5-[2-(4-fluoro-2,6-dimethylphenoxy)-5-(2-hydroxypropan-2-yl)phenyl]-1-methyl-4-{[trans-4-(2-methyl-5-oxopyrrolidin-1-yl)cyclohexyl]oxy}pyridin-2(1H)-one], the negative logarithm of the Ki (pKi) was 5.42. Next, `Cc1cc(F)cc(C)c1Oc1ccc(C(C)(C)O)cc1-c1cn(C)c(=O)cc1O[C@H]1CC[C@H](NC(=O)C23CC(NC(=O)OC(C)(C)C)(C2)C3)CC1` (relative stereo) [Example 72, tert-butyl (3-{[trans-4-({5-[2-(4-fluoro-2,6-dimethylphenoxy)-5-(2-hydroxypropan-2-yl)phenyl]-1-methyl-2-oxo-1,2-dihydropyridin-4-yl}oxy)cyclohexyl]carbamoyl}bicyclo[1.1.1]pentan-1-yl)carbamate]: less than 4.89; `Cc1cc(F)cc(C)c1Oc1ccc(C(C)(C)O)cc1-c1cn(C)c(=O)cc1O[C@H]1CC[C@H](NC(=O)C23CC(C2)C3)CC1` (relative stereo) [Example 86, N-[trans-4-({5-[2-(4-fluoro-2,6-dimethylphenoxy)-5-(2-hydroxypropan-2-yl)phenyl]-1-methyl-2-oxo-1,2-dihydropyridin-4-yl}oxy)cyclohexyl]bicyclo[1.1.1]pentane-1-carboxamide]: 5.76.

The compound `Cc1cc(F)cc(C)c1Oc1ccc(C(C)(C)O)cc1-c1cn(C)c(=O)cc1O[C@H]1CC[C@H](NC(=O)C23CC(N)(C2)C3)CC1` (relative stereo) [Example 93, 3-amino-N-[trans-4-({5-[2-(4-fluoro-2,6-dimethylphenoxy)-5-(2-hydroxypropan-2-yl)phenyl]-1-methyl-2-oxo-1,2-dihydropyridin-4-yl}oxy)cyclohexyl]bicyclo[1.1.1]pentane-1-carboxamide] gave a pKi of 5.92. Next, `Cc1cc(F)cc(C)c1Oc1ccc(C(C)(C)O)cc1-c1cn(C)c(=O)cc1O[C@H]1CC[C@H](NC(=O)C23CCC(NC(=O)OC(C)(C)C)(C2)C3)CC1` (relative stereo) [Example 103, tert-butyl (4-{[trans-4-({5-[2-(4-fluoro-2,6-dimethylphenoxy)-5-(2-hydroxypropan-2-yl)phenyl]-1-methyl-2-oxo-1,2-dihydropyridin-4-yl}oxy)cyclohexyl]carbamoyl}bicyclo[2.1.1]hexan-1-yl)carbamate]: 5.10; `Cc1cc(F)cc(C)c1Oc1ccc(C(C)(C)O)cc1-c1cn(C)c(=O)cc1O[C@H]1CC[C@H](NC(=O)C23CCC(CO)(CC2)CC3)CC1` (relative stereo) [Example 110, N-[trans-4-({5-[2-(4-fluoro-2,6-dimethylphenoxy)-5-(2-hydroxypropan-2-yl)phenyl]-1-methyl-2-oxo-1,2-dihydropyridin-4-yl}oxy)cyclohexyl]-4-(hydroxymethyl)bicyclo[2.2.2]octane-1-carboxamide]: 5.44; `Cc1cc(F)cc(C)c1Oc1ccc(C(C)(C)O)cc1-c1cn(C)c(=O)cc1O[C@H]1CC[C@H](N2C(=O)C3COCCN3C2=O)CC1` (relative stereo) [Example 126, 2-[trans-4-({5-[2-(4-fluoro-2,6-dimethylphenoxy)-5-(2-hydroxypropan-2-yl)phenyl]-1-methyl-2-oxo-1,2-dihydropyridin-4-yl}oxy)cyclohexyl]tetrahydro-1H-imidazo[5,1-c][1,4]oxazine-1,3(2H)-dione]: less than 4.89.

For the compound `Cc1cc(F)cc(C)c1Oc1ccc(C(C)(C)O)cc1-c1cn(C)c(=O)cc1O[C@H]1CC[C@H](N2C(=O)C3CC3C2=O)CC1` (relative stereo) [Example 129, 3-[trans-4-({5-[2-(4-fluoro-2,6-dimethylphenoxy)-5-(2-hydroxypropan-2-yl)phenyl]-1-methyl-2-oxo-1,2-dihydropyridin-4-yl}oxy)cyclohexyl]-3-azabicyclo[3.1.0]hexane-2,4-dione], the pKi was 6.11. Next, `Cc1cc(F)cc(C)c1Oc1ccc(C(C)(C)O)cc1-c1cn(C)c(=O)cc1O[C@H]1CC[C@H](N2C(=O)C(C)(C)N(C)C2C)CC1` (relative stereo) [Example 134, 5-[2-(4-fluoro-2,6-dimethylphenoxy)-5-(2-hydroxypropan-2-yl)phenyl]-1-methyl-4-{[trans-4-(2,3,4,4-tetramethyl-5-oxoimidazolidin-1-yl)cyclohexyl]oxy}pyridin-2(1H)-one]: 5.78. With `CC(=O)NC12CCC(C(=O)N[C@H]3CC[C@H](Oc4cc(=O)n(C)cc4-c4cc(C(C)(C)O)ccc4Oc4c(C)cc(F)cc4C)CC3)(C1)C2` (relative stereo) [Example 137, 4-acetamido-N-[trans-4-({5-[2-(4-fluoro-2,6-dimethylphenoxy)-5-(2-hydroxypropan-2-yl)phenyl]-1-methyl-2-oxo-1,2-dihydropyridin-4-yl}oxy)cyclohexyl]bicyclo[2.1.1]hexane-1-carboxamide] the figure was 5.74. Next, `CC(=O)N[C@H]1CC[C@H](Oc2cc(=O)n(C)cc2-c2cc(C(C)(C)O)cnc2Oc2c(C)cc(F)cc2C)CC1` [Example 1, N-(trans-4-{[2′-(4-fluoro-2,6-dimethylphenoxy)-5′-(2-hydroxypropan-2-yl)-1-methyl-6-oxo[1,6-dihydro[3,3′-bipyridine]]-4-yl]oxy}cyclohexyl)acetamide]: 5.77; `Cc1cccc(C)c1Oc1ccc(C(C)(C)O)cc1-c1cn(C)c(=O)cc1NC1CCN(S(C)(=O)=O)CC1` [Example 2, 5-[2-(2,6-dimethylphenoxy)-5-(2-hydroxypropan-2-yl)phenyl]-4-{[1-(methanesulfonyl)piperidin-4-yl]amino}-1-methylpyridin-2(1H)-one]: 5.23; `CC(=O)N[C@H]1CC[C@H](Oc2cc(=O)n(C)cc2-c2cc(C(C)(C)O)ccc2Oc2c(C)cc(F)cc2C)CC1` [Example 3, N-[trans-4-({5-[2-(4-fluoro-2,6-dimethylphenoxy)-5-(2-hydroxypropan-2-yl)phenyl]-1-methyl-2-oxo-1,2-dihydropyridin-4-yl}oxy)cyclohexyl]acetamide]: 5.99. Regarding `COC(=O)N[C@H]1CC[C@H](Oc2cc(=O)n(C)cc2-c2cc(C(C)(C)O)ccc2Oc2c(C)cc(F)cc2C)CC1` [Example 4, methyl [trans-4-({5-[2-(4-fluoro-2,6-dimethylphenoxy)-5-(2-hydroxypropan-2-yl)phenyl]-1-methyl-2-oxo-1,2-dihydropyridin-4-yl}oxy)cyclohexyl]carbamate], the pKi was 5.84. With `COC(=O)N[C@H]1CC[C@H](Oc2cc(=O)n(C)cc2-c2cc(C(C)(C)O)cnc2Oc2c(C)cc(F)cc2C)CC1` [Example 5, methyl (trans-4-{[2′-(4-fluoro-2,6-dimethylphenoxy)-5′-(2-hydroxypropan-2-yl)-1-methyl-6-oxo[1,6-dihydro[3,3′-bipyridine]]-4-yl]oxy}cyclohexyl)carbamate] the figure was 5.71; with `CC(=O)NC[C@H]1C[C@H](Oc2cc(=O)n(C)cc2-c2cc(C(C)(C)O)ccc2Oc2c(C)cc(F)cc2C)C1` [Example 6, N-{[trans-3-({5-[2-(4-fluoro-2,6-dimethylphenoxy)-5-(2-hydroxypropan-2-yl)phenyl]-1-methyl-2-oxo-1,2-dihydropyridin-4-yl}oxy)cyclobutyl]methyl}acetamide], 6.14; with `COC(=O)NC[C@H]1C[C@H](Oc2cc(=O)n(C)cc2-c2cc(C(C)(C)O)ccc2Oc2c(C)cc(F)cc2C)C1` [Example 7, methyl {[trans-3-({5-[2-(4-fluoro-2,6-dimethylphenoxy)-5-(2-hydroxypropan-2-yl)phenyl]-1-methyl-2-oxo-1,2-dihydropyridin-4-yl}oxy)cyclobutyl]methyl}carbamate], 6.04. Take `Cc1cc(F)cc(C)c1Oc1ccc(C(C)(C)O)cc1-c1cn(C)c(=O)cc1O[C@H]1C[C@@H](CNC(=O)OC(C)(C)C)C1` [Example 8, tert-butyl {[cis-3-({5-[2-(4-fluoro-2,6-dimethylphenoxy)-5-(2-hydroxypropan-2-yl)phenyl]-1-methyl-2-oxo-1,2-dihydropyridin-4-yl}oxy)cyclobutyl]methyl}carbamate]: the pKi was 5.57.
